Results reported in patent US6586424B2, “Tyrosine kinase inhibitors” (Merck & Co., Inc., priority 1999, dated 2003).
Where a name gives a salt, the structure may show the parent alone.

| melting point [°C] | Structure (SMILES) |
| --- | --- |
| 204 to 205 | Cc1cccc(-c2cnc(Nc3ccccn3)s2)c1 [Compound 5-7, Pyridin-2-yl-(5-m-tolyl-thiazol-2-yl)-amine] |
| 242 to 244 | FC(F)(F)c1cccc(-c2cnc(Nc3ccccn3)s2)c1 [Compound 5-15, Pyridin-2-yl-[5-(3-trifluoromethyl-phenyl)-thiazol-2-yl]-amine] |
| > 250 | FC(F)(F)c1ccc(-c2cnc(Nc3ccccn3)s2)cc1 [Compound 5-16, Pyridin-2-yl-[5-(4-trifluoromethyl-phenyl)-thiazol-2-yl]-amine] |
| > 250 | Fc1cccc(-c2cnc(Nc3ccccn3)s2)c1 [Compound 5-19, [5-(3-Fluoro-phenyl)-thiazol-2-yl]-pyridin-2-yl-amine] |
| 239 to 240 | Fc1ccc(-c2cnc(Nc3ccccn3)s2)cc1 [Compound 5-20, [5-(4-Fluoro-phenyl)-thiazol-2-yl]-pyridin-2-yl-amine] |
| 213 to 215 | Clc1ccccc1-c1cnc(Nc2ccccn2)s1 [Compound 5-21, [5-(2-Chloro-phenyl)-thiazol-2-yl]-pyridin-2-yl-amine] |
| > 250 | Clc1ccc(-c2cnc(Nc3ccccn3)s2)cc1 [Compound 5-23, [5-(4-Chloro-phenyl)-thiazol-2-yl]-pyridin-2-yl-amine] |
| > 250 | Clc1ccc(-c2cnc(Nc3ccccn3)s2)cc1Cl [Compound 5-24, [5-(3,4-dichloro-phenyl)-thiazol-2-yl]-pyridin-2-yl-amine] |

Second part, the compound before the results:

| Structure (SMILES) | melting point [°C] |
| --- | --- |
| Brc1ccc(Nc2ncc(-c3ccccc3)s2)nc1 (as salt: HBr) [Compound 4-4, (5-Bromo-pyridin-2-yl)-(5-phenyl-thiazol-2-yl)-amine] | > 220 |
| COC(=O)c1cccc(Nc2ncc(-c3ccccc3)s2)n1 [Compound 4-6, 6-(5-Phenyl-thiazol-2-ylamino)-pyridine-2-carboxylic Acid Methyl Ester] | 231 to 232 |
| CCc1cnc(Nc2ccccn2)s1 [Compound 4-18, (5-Ethyl-thiazol-2-yl)-pyridin-2-yl-amine] | 113 |
| Cc1ccccc1-c1cnc(Nc2ccccn2)s1 [Compound 5-6, Pyridin-2-yl-(5-o-tolyl-thiazol-2-yl)-amine] | 155 to 160 |
| c1ccc(Nc2ncc(-c3cccc4ccccc34)s2)nc1 [Compound 5-9, (5-Naphthalen-1-yl-thiazol-2-yl)-pyridin-2-yl-amine] | 223.5 to 226 |
| FC(F)(F)c1ccccc1-c1cnc(Nc2ccccn2)s1 [Compound 5-14, Pyridin-2-yl[5-(2-trifluoromethyl-phenyl)-thiazol-2-yl]-amine] | 195 to 203 |
| Fc1ccccc1-c1cnc(Nc2ccccn2)s1 [Compound 5-18, [5-(2-Fluoro-phenyl)-thiazol-2-yl]-pyridin-2-yl-amine] | 227 to 228 |
